This is an account of results in patent US20220315571A1 (Cytokinetics, Inc., priority 2019, published 2022).

Where two headings read alike, the source gives them in different places.

A short description of data set [1]: Polymorph screening, heat/humidity exposure of Form I (XRPD). The format is physicochemical. The method, then: Polymorphic Form I of (R)-N-(5-(5-ethyl-1,2,4-oxadiazol-3-yl)-2,3-dihydro-1H-inden-1-yl)-1-methyl-1H-pyrazole-4-carboxamide was mixed with various solvents under various conditions. Samples generated were analyzed by XRPD.
A short description of data set [2]: Dynamic Vapor Sorption (DVS). The format is physicochemical. Particulars: 5-90% relative humidity (RH) range, 25° C. The method, then: DVS analyses were carried out TA Instruments Q5000 Dynamic Vapor Sorption analyzer. The instrument was calibrated with standard weights and a sodium bromide standard for humidity. Samples were analyzed at 25° C. with a maximum equilibration time of 60 minutes in 10% relative humidity (RH) steps from 5 to 95% RH (adsorption cycle) and from 95 to 5% RH (desorption cycle).
Polymorphic Form I of (R)-N-(5-(5-ethyl-1,2,4-oxadiazol-3-yl)-2,3-dihydro-1H-inden-1-yl)-1-methyl-1H-pyrazole-4-carboxamide was analyzed by XRPD, DSC, TGA, and DVS. […] As shown in the TGA graph, a weight loss of 0.2% below 200° C., was observed.

The nature of data set [3]: Competitive slurry experiments between Form I and Form IV. The format is physicochemical. An excerpt: The results of the competitive slurry experiments are provided below in Table 7.
In data set [4] the test system is Rat Cardiac Contractility. The data set can be described thus: Echocardiography assessment of acute pharmacodynamic effect in rat cardiac contractility. The format is in vivo, Sprague Dawley rats. The method, then: Assessment of in vivo cardiac function by echocardiography was performed in male Sprague Dawley rats under isoflurane (1-3%) anesthesia. 2-D M-mode images of the left ventricle were acquired in the parasternal long-axis view before, during, and after administration of compounds by continuous IV infusion or oral gavage. In vivo fractional shortening was determined by M-mode image analysis with the following calculation: ((End diastolic diameter—end systolic diameter)/end diastolic diameter×100). For continuous IV infusion experiments, three pre-dose baseline M-mode images were taken at 1 minute intervals prior to infusion of compound. Compounds were formulated in 50% Propylene Glycol (PG): 16% Captisol: 10% dimethylacetamide (DMA) and delivered via a jugular vein catheter at the rate of 1 mL/kg/h. During infusion, M-mode images were taken at 5 minute intervals. The infusion stopped when fractional shortening reached up to a 60% reduction from baseline. Blood samples were taken to determine the plasma concentration of the compounds. Data was reported as an estimated IC50 value, which is the concentration at which fractional shortening is 50% of the pre-dose baseline contractility.
For oral dosing studies, three pre-dose baseline M-Mode images were taken at 1 minute intervals prior to compound administration. […] Rats were lightly anesthetized for M-Mode echocardiography measurements at select time points over a 24 hour period. Different dose levels were evaluated. The compound effect on cardiac fractional shortening at the highest dose evaluated is presented below as a percent reduction of baseline fractional shortening (=100%).
Concurrent with echocardiography measurements, blood samples were taken to determine the corresponding compound plasma concentration.

For data set [5], the system named is myocytes. As to the kind of experiment: Myocyte contractility assay (fractional shortening, edge detection). The format is cell-based, Sprague-Dawley rats. The following applies: 5 μM, adult rat myocytes, 5 min perfusion, 5 cells tested. How it is done: Adult male Sprague-Dawley rats were anesthetized and the hearts were quickly excised, rinsed and the ascending aorta was cannulated. Continuous retrograde perfusion was initiated on the hearts at a perfusion pressure of 60 cm H2O. Hearts were first perfused with a nominally Ca^2+-free modified Krebs solution of the following composition: 113 mM NaCl, 4.7 mM KCl, 0.6 mM KH2PO4, 0.6 mM Na2HPO4, 1.2 mM MgSO4, 12 mM NaHCO3, 10 mM KHCO3, 30 mM taurine, 5.5 mM glucose and 10 mM Hepes (all Sigma). This medium is not recirculated and is continually aerated with a 95% O2/5% CO2 mixture. […]
Aliquots of myocytes in Tyrode's buffer were placed in perfusion chambers (series 20 RC-27NE; Warner Instruments) complete with heating platforms. […] Contractility of the myocytes and contraction and relaxation velocities were then recorded using edge detection.
Five or more individual myocytes were tested per compound from two or more different myocyte preparations. […] These average transients were analyzed using the IonWizard software (IonOptix) to determine changes in diastolic length and fractional shortening. Fractional shortening was calculated as: ((resting length−length at peak contraction) divided by the resting length). The percent change in fractional shortening from baseline was calculated as: ((post-dose fractional shortening/basal fractional shortening)*100). […]

Regarding `CCc1nc(-c2ccc3c(c2)CC[C@H]3NC(=O)c2cnn(C)c2)no1` [Form I, (R)-N-(5-(5-ethyl-1,2,4-oxadiazol-3-yl)-2,3-dihydro-1H-inden-1-yl)-1-methyl-1H-pyrazole-4-carboxamide], the “XRPD form after heat/humidity exposure” value in data set [1] (none, RT, 0% RH) is given as “Form I”; in data set [1] (water vapor, 40° C., 75% RH), “Form I”; in data set [1] (water vapor, RT, 59% RH), “Form I”; in data set [1] (water vapor, RT, 75% RH), “Form I”; in data set [1] (water vapor, RT, 97% RH), “Form I”. Further, in data set [2], the “moisture uptake as determined by DVS” value is 0.60 % w/w.
For `CCc1nc(-c2ccc3c(c2)CC[C@H]3NC(=O)c2cnn(C)c2)no1` [Form IV, (R)-N-(5-(5-ethyl-1,2,4-oxadiazol-3-yl)-2,3-dihydro-1H-inden-1-yl)-1-methyl-1H-pyrazole-4-carboxamide], the “relative stability of forms in competitive slurry” value in data set [3] (temperature range 2-60° C.) was “more stable than Form I”.
Turning to `CCc1nc(-c2ccc3c(c2)CC[C@H]3NC(=O)c2cnn(C)c2)no1` [Forms I and IV, (R)-N-(5-(5-ethyl-1,2,4-oxadiazol-3-yl)-2,3-dihydro-1H-inden-1-yl)-1-methyl-1H-pyrazole-4-carboxamide], the “XRPD form after competitive slurry” value is “Form IV” in data set [3] (ACN, 2 ° C.); “Form IV” in data set [3] (ACN, 25 ° C.); “Form IV” in data set [3] (ACN, 60 ° C.); “Form IV” in data set [3] (acetone, 2 ° C.); “Form IV” in data set [3] (acetone, 25 ° C.); “Form IV” in data set [3] (acetone, 60 ° C.).
In the case of `CCc1nc(-c2ccc3c(c2)CC[C@H]3NC(=O)c2cnn(C)c2)no1` [(R)-N-(5-(5-ethyl-1,2,4-oxadiazol-3-yl)-2,3-dihydro-1H-inden-1-yl)-1-methyl-1H-pyrazole-4-carboxamide], the “FS (% reduction from baseline) at 1-2 h post dose (Mean ± S.D.)” value in data set [4] (2 mg/kg single dose by oral gavage, rat, 1-2 h post dose) came to 43 ± 9%. The “FS (% reduction from baseline) at 4 h post dose (Mean ± S.D.)” value in data set [4] (2 mg/kg single dose by oral gavage, rat, 4 h post dose) was 31 ± 9%. Moreover, the IC50 in data set [4] (continuous IV infusion, rats under isoflurane, read-out: estimated IC50 (plasma concentration at which fractional shortening is 50% of pre-dose baseline contractility), Mean±S.D.) was 7.2 ± 0.2 µM; in data set [4] (oral dosing studies, rat, read-out: estimated IC50 (plasma concentration, fractional shortening)), 7.9 µM. In data set [4] (oral dosing studies, rat), the “estimated IC10 (plasma concentration, fractional shortening)” value was 0.8 µM. Further, the “% FS (% reduction from baseline) ± SEM” value in data set [5] was 67.4 ± −5.8%.
